In patent publication US20100144755A1 (Glaxo Group Limited, priority 2006, published 2010):
pIC50: −log10 of the molar value. Read-outs that look alike come from different tables or passages of the source.

What was measured:
[1] = test system: influx of neutrophils to the lung in LPS-challenged rats; assay: Rat LPS neutrophilia model; format: in vivo; details: LPS aerosol, intratracheal dosing, in at least one of the range of conditions tested, significance p<0.05
Method in brief: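 Compound given intratracheally (200 ul suspension or dry powder via microsprayer) to isoflurane-anesthetized rats 15 min–24 h before 15 min LPS aerosol (100 ug/ml). Lavage 4 h post-challenge; neutrophils from differential counts. % inhibition versus no-compound controls at a given concentration and pretreat time.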

[2] = test system: TNF-stimulated IL8 production by human neutrophils; assay: TNF-stimulated IL-8 production from human neutrophils; format: cell-based; details: Neutrophil, TNF 100 ng/ml, about 20 hrs, bounds reflect the top concentration screened, for 202(c) and 120 a range over multiple runs with ends given as 'greater than';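 also: IL-8 in cell-free supernatant quantified by sandwich ELISA, inhibition calculated against a compound-free control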
Protocol: TNF-Stimulated IL-8 Production from Human Neutrophils
The effect of test compounds on TNF-stimulated IL8 production by human neutrophils is measured as follows. Neutrophils are prepared from blood obtained from consenting donors, using standard methods. Blood is collected in heparinized syringes and layered over histopaque (30 ml/20 ml). Following centrifugation, the red cell pellet is resuspended in PBS and purified over a dextran gradient. […] Cells are added (0.5-1 ml) to 48 well plates already containing compound at 1000× final concentration in neat DMSO or 10% DMSO in RPMI1640 with 10% FBS. TNF (final concentration 100 ng/ml) is used as the stimulus. Cells incubated for approximately 20 hrs at 37° C., 5% CO2. Levels of IL-8 in the cell free supernatant are determined by sandwich ELISA, and inhibition relative to a control with DMPO but no compound is calculated.

Recombinant human p38α = molecular target: T1, Recombinant human p38α (Homo sapiens, UniProt Q16539); assay: Fluorescence anisotropy kinase binding assay (standard and low volume); details: for IC50: 12 nM p38α, 5 nM fluorescent ligand, 5.1 to 8.4 is stated collectively for the listed examples, read-out: pIC50, fluorescence anisotropy kinase binding assay (converted); for pIC50: no IC50 at a concentration of less than 16 uM, read-out: IC50, fluorescence anisotropy kinase binding assay
T1 construct: His; made in house
T1 sequence (Q16539 whole entry): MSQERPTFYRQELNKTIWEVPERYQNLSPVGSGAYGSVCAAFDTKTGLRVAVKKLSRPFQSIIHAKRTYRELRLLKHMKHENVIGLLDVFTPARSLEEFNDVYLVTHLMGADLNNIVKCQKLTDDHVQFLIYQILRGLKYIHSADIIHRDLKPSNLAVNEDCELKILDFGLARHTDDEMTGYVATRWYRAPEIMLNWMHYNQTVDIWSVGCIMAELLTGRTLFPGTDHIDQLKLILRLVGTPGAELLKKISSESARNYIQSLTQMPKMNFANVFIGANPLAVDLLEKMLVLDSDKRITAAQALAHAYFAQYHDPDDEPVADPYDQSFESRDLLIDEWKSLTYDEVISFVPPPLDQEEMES
Source text: Fluorescence Anisotropy Kinase Binding Assay—Standard Volume
(§1) The concentration of kinase enzyme should preferably be ≧2×Kf. The concentration of fluorescent ligand required will depend on the instrumentation used, and the fluorescent and physicochemical properties. The concentration used must be lower than the concentration of kinase enzyme, and preferably less than half the kinase enzyme concentration.
The fluorescent ligand is the following compound:
which is derived from 5-[2-(4-aminomethylphenyl)-5-pyridin-4-yl-1H-imidazol-4-yl]-2-chlorophenol and rhodamine green.
Recombinant human p38α was expressed as a GST-tagged protein. To activate this protein, 3.5 μM unactivated p38α was incubated in 50 mM Tris-HCl pH 7.5, 0.1 mM EGTA, 0.1% 2-mercaptoethanol, 0.1 mM sodium vanadate, 10 mM MgAc, 0.1 mM ATP with 200 nM MBP-MKK6 DD at 30 degrees for 30 mins. Following activation p38α was re-purified and the activity assessed using a standard filter-binding assay.
(§2) Protocol: All components are dissolved in buffer of composition 62.5 mM HEPES, pH 7.5, 1.25 mM CHAPS, 1 mM DTT, 12.5 mM MgCl2 with final concentrations of 12 nM p38α and 5 nM fluorescent ligand. 30 μl of this reaction mixture is added to wells containing 1 μl of various concentrations of test compound (0.28 nM-16.6 μM final) or DMSO vehicle (3% final) in NUNC 384 well black microtitre plate and equilibrated for 30-60 mins at room temperature. Fluorescence anisotropy is read in Molecular Devices Acquest (excitation 485 nm/emission 535 nm).
Definitions: Ki=dissociation constant for inhibitor binding • Kf=dissociation constant for fluorescent ligand binding
Fluorescence Anisotropy Kinase Binding Low Volume Assay
as §1, with “2×Kf.” for “≧2×Kf.”
as §2, with “containing 0.1” for “containing 1”, “compound (0.02 nM-25” for “compound (0.28 nM-16.6”, “vehicle (1.7%” for “vehicle (3%”, “in Greiner low volume” for “in NUNC”
It is noted that there are two assay formats shown above for the Fluorescence anisotropy kinase binding assay. The only difference between these two assays is the volume used and the plate type. […] The results described herein may have been performed in either assay format and are not differentiated as to which.

| SMILES | melting point | inhibition of neutrophilia [1] | pIC50 [2] | also measured |
| --- | --- | --- | --- | --- |
| Cc1c(F)cc(C(=O)NC2CC2)cc1-c1nc(NC(CO)CO)nc2c1ccc(=O)n2-c1c(F)cccc1F [18(e), N-cyclopropyl-3-(8-(2,6-difluorophenyl)-2-{[2-hydroxy-1-(hydroxymethyl)ethyl]amino}-7-oxo-7,8-dihydropyrido[2,3-d]pyrimidin-4-yl)-5-fluoro-4-methylbenzamide] | 214.2 to 217.5 °C |  |  |  |
| Cc1ccc(NC(=O)c2ccsc2)cc1-c1nc(N2CCC(N)CC2)nc2c1ccc(=O)n2-c1c(F)cccc1F [Example 32, N-{3-[2-(4-amino-1-piperidinyl)-8-(2,6-difluorophenyl)-7-oxo-7,8-dihydropyrido[2,3-d]pyrimidin-4-yl]-4-methylphenyl}-3-thiophenecarboxamide] | 183.8 to 187.9 °C | statistically nonsignificant inhibition |  |  |
| Cc1ccc(NC(=O)c2cccs2)cc1-c1nc(NC2CC(C)(C)NC(C)(C)C2)nc2c1ccc(=O)n2-c1c(F)cccc1F [Example 9, N-(3-{8-(2,6-difluorophenyl)-7-oxo-2-[(2,2,6,6-tetramethyl-4-piperidinyl)amino]-7,8-dihydropyrido[2,3-d]pyrimidin-4-yl}-4-methylphenyl)-2-thiophenecarboxamide] |  |  | < 7.00 | IC50 (Recombinant human p38α): > 15800 nM; pIC50 (Recombinant human p38α): ≤ 4.80 |
| CCCNCCNc1nc(-c2cc(C(=O)NC3CC3)ccc2C)c2ccc(=O)n(-c3c(F)cccc3F)c2n1 [Example 24, N-cyclopropyl-3-(8-(2,6-difluorophenyl)-7-oxo-2-{[2-(propylamino)ethyl]amino}-7,8-dihydropyrido[2,3-d]pyrimidin-4-yl)-4-methylbenzamide] | 120 to 134 °C | statistically nonsignificant inhibition |  |  |
| CCCNC(=O)c1ccc(C)c(-c2nc(NCCN(C)C)nc3c2ccc(=O)n3-c2c(F)cccc2F)c1 [Example 105, 3-(8-(2,6-difluorophenyl)-2-{[2-(dimethylamino)ethyl]amino}-7-oxo-7,8-dihydropyrido[2,3-d]pyrimidin-4-yl)-4-methyl-N-propylbenzamide] | 139 to 142 °C | statistically significant inhibition |  |  |
| CCCNC(=O)c1ccc(C)c(-c2nc(NCCN(C)C(=O)OC(C)(C)C)nc3c2ccc(=O)n3-c2c(F)cccc2F)c1 [Example 106, 1,1-dimethylethyl{2-[(8-(2,6-difluorophenyl)-4-{2-methyl-5-[(propylamino)carbonyl]phenyl}-7-oxo-7,8-dihydropyrido[2,3-d]pyrimidin-2-yl)amino]ethyl}methylcarbamate] | 115 to 118 °C |  |  |  |
| Cc1ccc(C(=O)NC2CC2)cc1-c1nc(NCCN(C)C)nc2c1ccc(=O)n2-c1c(F)cccc1F [Example 25] | 214.7 to 217.5 °C | statistically nonsignificant inhibition |  |  |
| Cc1ccc(C(=O)O)cc1-c1nc(NC(CO)CO)nc2c1ccc(=O)n2-c1c(F)cccc1F [80(a), 3-(8-(2,6-difluorophenyl)-2-{[2-hydroxy-1-(hydroxymethyl)-ethyl]amino}-7-oxo-7,8-dihydropyrido[2,3-d]pyrimidin-4-yl)-4-methylbenzoic acid] |  |  | < 7.00 |  |
| CCN(CC)CCCNc1nc(-c2ccc(C(=O)NC3CC3)cc2)c2ccc(=O)n(-c3c(F)cccc3F)c2n1 [Example 190, N-cyclopropyl-4-[2-{[3-(diethylamino)propyl]amino}-8-(2,6-difluorophenyl)-7-oxo-7,8-dihydropyrido[2,3-d]pyrimidin-4-yl]benzamide] |  |  | < 7.52 |  |
| Cc1cc(C(=O)Nc2ccc(C)c(-c3nc(NC4CCNCC4)nc4c3ccc(=O)n4-c3c(F)cccc3F)c2)ccc1F [12(c), N-{3-[8-(2,6-difluorophenyl)-7-oxo-2-(4-piperidinylamino)-7,8-dihydropyrido[2,3-d]pyrimidin-4-yl]-4-methylphenyl}-4-fluoro-3-methylbenzamide] |  |  | < 7.00 |  |
| CSc1nc(Cl)c2ccc(=O)n(-c3c(F)cccc3F)c2n1 [Example 1(a), 4-chloro-8-(2,6-difluorophenyl)-2-(methylthio)pyrido[2,3-d]pyrimidin-7(8H)-one] |  |  | < 7.00 | IC50 (Recombinant human p38α): > 15800 nM; pIC50 (Recombinant human p38α): ≤ 4.80 |
| Cc1ccc(NC(=O)c2cccs2)cc1-c1nc(S(C)(=O)=O)nc2c1ccc(=O)n2-c1c(F)cccc1F [7(c), N-{3-[8-(2,6-difluorophenyl)-2-(methylsulfonyl)-7-oxo-7,8-dihydropyrido[2,3-d]pyrimidin-4-yl]-4-methylphenyl}-2-thiophenecarboxamide] |  |  | < 7.00 |  |
| O=C(O)c1cccc(-c2nc(NC(CO)CO)nc3c2ccc(=O)n3-c2ccc(F)cc2F)c1 [Example 96(d), 3-(8-(2,4-difluorophenyl)-2-{[2-hydroxy-1-(hydroxymethyl)ethyl]amino}-7-oxo-7,8-dihydropyrido[2,3-d]pyrimidin-4-yl)benzoic acid] |  |  |  | IC50 (Recombinant human p38α): > 15800 nM; pIC50 (Recombinant human p38α): ≤ 4.80 |
| Cc1ccc(NC(=O)c2cccs2)cc1-c1nc(NC2CCNCC2)nc2c1ccc(=O)n2-c1c(F)cccc1F [7(d), N-{3-[8-(2,6-difluorophenyl)-7-oxo-2-(4-piperidinylamino)-7,8-dihydropyrido[2,3-d]pyrimidin-4-yl]-4-methylphenyl}-2-thiophenecarboxamide] |  |  | < 7.00 |  |
| Cc1ccc(C(=O)NCc2ccccc2)cc1-c1nc(NCc2ncc[nH]2)nc2c1ccc(=O)n2-c1c(F)cccc1F [116(c), 3-{8-(2,6-difluorophenyl)-2-[(1H-imidazol-2-ylmethyl)amino]-7-oxo-7,8-dihydropyrido[2,3-d]pyrimidin-4-yl}-4-methyl-N-(phenylmethyl)benzamide] | 185 to 190 °C (dec.) |  |  |  |
| Cc1ccc(C(=O)NCc2ccccc2)cc1-c1nc([S+](C)[O-])nc2c1ccc(=O)n2-c1c(F)cccc1F (stereo not shown) [116(b), 3-[8-(2,6-difluorophenyl)-2-(methylsulfinyl)-7-oxo-7,8-dihydropyrido[2,3-d]pyrimidin-4-yl]-4-methyl-N-(phenylmethyl)benzamide] |  |  | < 7.00 |  |
| CCCNC(=O)c1ccc(C)c(-c2nc(N(C)CCCN(C)C)nc3c2ccc(=O)n3-c2c(F)cccc2F)c1 [Example 104, 3-{8-(2,6-difluorophenyl)-2-[[3-(dimethylamino)propyl](methyl)amino]-7-oxo-7,8-dihydropyrido[2,3-d]pyrimidin-4-yl}-4-methyl-N-propylbenzamide] | 104 to 109 °C | statistically significant inhibition |  |  |
| CCN(CC)CCCNc1nc(-c2cc(C(=O)N[C@H](C)C(C)C)ccc2C)c2ccc(=O)n(-c3c(F)cccc3F)c2n1 [Example 130, 3-[2-{[3-(diethylamino)propyl]amino}-8-(2,6-difluorophenyl)-7-oxo-7,8-dihydropyrido[2,3-d]pyrimidin-4-yl]-N-[(1R)-1,2-dimethylpropyl]-4-methylbenzamide] |  | statistically nonsignificant inhibition | < 8.00 |  |
| Cc1ccc(C(=O)NC2CC2)cc1-c1nc(NC2CC(C)(C)NC(C)(C)C2)nc2c1ccc(=O)n2-c1c(F)cccc1F [21(c)] | 326.3 to 327.9 °C |  |  |  |
| Cc1ccc(N)cc1-c1nc(NC2CC(C)(C)NC(C)(C)C2)nc2c1ccc(=O)n2-c1c(F)cccc1F [Example 110, 4-(5-amino-2-methylphenyl)-8-(2,6-difluorophenyl)-2-[(2,2,6,6-tetramethyl-4-piperidinyl)amino]pyrido[2,3-d]pyrimidin-7(8H)-one] |  |  | < 7.00 |  |
